From patent US11673898B2, “Substituted inhibitors of menin-MLL and methods of use” (Kura Oncology, Inc., priority 2016, dated 2023)
pIC50: −log10 of the molar value.

Biological target: T1, Menin MLL 4-43 (Homo sapiens, UniProt O00255)
T1 sequence (O00255 1-610): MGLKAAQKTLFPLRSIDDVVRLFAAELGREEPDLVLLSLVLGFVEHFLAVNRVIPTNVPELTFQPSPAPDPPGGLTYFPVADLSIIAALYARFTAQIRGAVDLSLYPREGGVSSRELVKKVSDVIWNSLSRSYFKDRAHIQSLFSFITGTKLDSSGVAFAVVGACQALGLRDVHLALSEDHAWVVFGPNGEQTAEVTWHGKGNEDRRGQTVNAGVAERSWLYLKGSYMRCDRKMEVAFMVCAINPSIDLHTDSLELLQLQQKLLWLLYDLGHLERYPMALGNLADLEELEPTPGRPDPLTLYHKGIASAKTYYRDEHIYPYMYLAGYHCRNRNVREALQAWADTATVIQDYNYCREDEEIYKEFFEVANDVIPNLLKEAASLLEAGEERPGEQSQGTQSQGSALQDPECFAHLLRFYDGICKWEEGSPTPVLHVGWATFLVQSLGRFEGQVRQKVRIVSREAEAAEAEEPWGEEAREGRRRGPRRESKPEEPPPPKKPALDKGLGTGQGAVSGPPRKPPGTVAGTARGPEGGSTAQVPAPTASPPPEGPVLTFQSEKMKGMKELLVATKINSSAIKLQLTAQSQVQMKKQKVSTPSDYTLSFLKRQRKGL
Experiment: Fluorescence polarization (FP) competition assay of the menin-MLL interaction
Format: binding
Details: fluorescence polarization assay; read-out: Menin MLL 4-43 IC50

pIC50 | Compound
6.00 to 7.70 | C=CC(=O)Nc1ccc(C(Cn2c(C#N)cc3c(C)c(CN4CCC(Nc5ncnc6sc(CC(F)(F)F)cc56)CC4)ccc32)OC)cc1 (stereo not drawn) [Compound 1]
6.60 to 7.30 | Cc1c(CN2CCC(Nc3ncnc4sc(CC(F)(F)F)cc34)CC2)ccc2c1cc(C#N)n2CC(C)N1CCN(S(C)(=O)=O)CC1 (stereo not drawn) [Compound 2]
6.00 to 7.70 | Cc1c(CN2CCC(Nc3ncnc4sc(CC(F)(F)F)cc34)CC2)ccc2c1cc(C#N)n2CC(C)N1CCN(S(C)(=O)=O)CC1 (stereo not drawn) [Compound 3]
6.60 to 7.30 | CCS(=O)(=O)N1CCN(C(C)Cn2c(C#N)cc3c(C)c(CN4CCC(Nc5ncnc6sc(CC(F)(F)F)cc56)CC4)ccc32)CC1 (stereo not drawn) [Compound 4]
6.60 to 7.30 | CC(=O)N1CCN(C(C)Cn2c(C#N)cc3c(C)c(CN4CCC(Nc5ncnc6sc(CC(F)(F)F)cc56)CC4)ccc32)CC1 (stereo not drawn) [Compound 5]
> 7.30 | Cc1c(CN2CCC(Nc3ncnc4sc(CC(F)(F)F)cc34)CC2)ccc2c1cc(C#N)n2CC(C)N1CCN(C=O)CC1 (stereo not drawn) [Compound 6]
6.60 to 7.30 | Cc1c(CN2CCC(Nc3ncnc4sc(CC(F)(F)F)cc34)CC2)ccc2c1cc(C#N)n2CC(C)N1CCN(S(N)(=O)=O)CC1 (stereo not drawn) [Compound 7]
> 7.30 | CNS(=O)(=O)N1CCN(C(C)Cn2c(C#N)cc3c(C)c(CN4CCC(Nc5ncnc6sc(CC(F)(F)F)cc56)CC4)ccc32)CC1 (stereo not drawn) [Compound 8]
6.60 to 7.30 | Cc1c(CN2CCC(Nc3ncnc4sc(CC(F)(F)F)cc34)CC2)ccc2c1cc(C#N)n2CC(C)N1CCN(S(C)(=O)=O)C(C)C1 (stereo not drawn) [Compound 11]
> 7.30 | Cc1c(CN2CCC(Nc3ncnc4sc(CC(F)(F)F)cc34)CC2)ccc2c1cc(C#N)n2CC(C)N1C[C@@H](C)N(S(C)(=O)=O)[C@@H](C)C1 (stereo partly drawn) [Compound 12]
> 7.30 | Cc1c(CN2CCC(Nc3ncnc4sc(CC(F)(F)F)cc34)CC2)ccc2c1cc(C#N)n2CC(C)N1CCN(S(C)(=O)=O)[C@@H](C)C1 (stereo partly drawn) [Compound 13]
> 7.30 | Cc1c(CN2CCC(Nc3ncnc4sc(CC(F)(F)F)cc34)CC2)ccc2c1cc(C#N)n2CC(C)N1CCN(S(C)(=O)=O)[C@H](C)C1 (stereo partly drawn) [Compound 14]
< 6.00 | CCC(Cn1c(C#N)cc2c(C)c(CN3CCC(Nc4ncnc5sc(CC(F)(F)F)cc45)CC3)ccc21)N1CCN(S(C)(=O)=O)CC1 (stereo not drawn) [Compound 15]
< 6.00 | Cc1c(CN2CCC(Nc3ncnc4sc(CC(F)(F)F)cc34)CC2)ccc2c1cc(C#N)n2CC(C)(C)N1CCN(S(C)(=O)=O)CC1 [Compound 16]
6.60 to 7.30 | Cc1c(CN2CCC(Nc3ncnc4sc(CC(F)(F)F)cc34)CC2)ccc2c1cc(C#N)n2C[C@@H](C)N1CCN(S(C)(=O)=O)[C@@H](C)C1 [Compound 17]
> 7.30 | Cc1c(CN2CCC(Nc3ncnc4sc(CC(F)(F)F)cc34)CC2)ccc2c1cc(C#N)n2C[C@H](C)N1CCN(S(C)(=O)=O)[C@@H](C)C1 [Compound 18]
6.60 to 7.30 | Cc1c(CN2CCC(Nc3ncnc4sc(CC(F)(F)F)cc34)CC2)ccc2c1cc(C#N)n2C[C@H](C)N1CCN(S(C)(=O)=O)[C@H](C)C1 [Compound 19]
> 7.30 | Cc1c(CN2CCC(Nc3ncnc4sc(CC(F)(F)F)cc34)CC2)ccc2c1cc(C#N)n2C[C@@H](C)N1CCN(S(C)(=O)=O)[C@H](C)C1 [Compound 20]
6.60 to 7.30 | Cc1c(CN2CCC(Nc3ncnc4sc(CC(F)(F)F)cc34)CC2)ccc2c1cc(C#N)n2CC(C)N1C[C@H](C)N(S(C)(=O)=O)[C@@H](C)C1 (stereo partly drawn) [Compound 21]
> 7.30 | Cc1c(CN2CCC(Nc3ncnc4sc(CC(F)(F)F)cc34)CC2)ccc2c1cc(C#N)n2CC(C)N1C[C@@H](C)N(S(C)(=O)=O)[C@H](C)C1 (stereo partly drawn) [Compound 22]
< 6.00 | Cc1c(CN2CCC(Nc3ncnc4sc(CC(F)(F)F)cc34)CC2)ccc2c1cc(C#N)n2CC(C1CC1)N1CCN(S(C)(=O)=O)CC1 (stereo not drawn) [Compound 23]
6.00 to 7.70 | Cc1c(CN2CCC(Nc3ncnc4sc(CC(F)(F)F)cc34)CC2)ccc2c1cc(C#N)n2CC(C(C)C)N1CCN(S(C)(=O)=O)CC1 (stereo not drawn) [Compound 24]
6.60 to 7.30 | Cc1c(CN2CCC(Nc3ncnc4sc(CC(F)(F)F)cc34)CC2)ccc2c1cc(C#N)n2CC(C)N1CCN(S(C)(=O)=O)C(C)(C)C1 (stereo not drawn) [Compound 25]
6.00 to 7.70 | CC[C@H]1CN(C(C)Cn2c(C#N)cc3c(C)c(CN4CCC(Nc5ncnc6sc(CC(F)(F)F)cc56)CC4)ccc32)CCN1S(C)(=O)=O (stereo partly drawn) [Compound 26]
> 7.30 | Cc1c(CN2CCC(Nc3ncnc4sc(CC(F)(F)F)cc34)CC2)ccc2c1cc(C#N)n2C(C)CN1CCN(S(C)(=O)=O)CC1 (stereo not drawn) [Compound 27]
> 7.30 | Cc1c(CN2CCC(Nc3ncnc4sc(CC(F)(F)F)cc34)CC2)ccc2c1cc(C#N)n2CC(C)N1CC2CCC(C1)N2S(C)(=O)=O (stereo not drawn) [Compound 28]

pIC50 | Compound
6.60 to 7.30 | CC[C@@H]1CN(C(C)Cn2c(C#N)cc3c(C)c(CN4CCC(Nc5ncnc6sc(CC(F)(F)F)cc56)CC4)ccc32)CCN1S(C)(=O)=O (stereo partly drawn) [Compound 29]
6.60 to 7.30 | Cc1c(CN2CCC(Nc3ncnc4sc(CC(F)(F)F)cc34)CC2)ccc2c1cc(C#N)n2CC(C)N1CC2CC(C1)N2S(C)(=O)=O (stereo not drawn) [Compound 30]
< 6.00 | Cc1c(CN2CCC(Nc3ncnc4sc(CC(F)(F)F)cc34)CC2)ccc2c1cc(C#N)n2CC(=O)N1CCN(S(C)(=O)=O)CC1 [Compound 35, 4-methyl-1-(2-(4-(methylsulfonyl)piperazin-1-yl)-2-oxoethyl)-5-((4-((6-(2,2,2-trifluoroethyl)thieno[2,3-d]pyrimidin-4-yl)amino)piperidin-1-yl)methyl)-1H-indole-2-carbonitrile]
6.60 to 7.30 | Cc1c(CN2CCC(Nc3ncnc4sc(CC(F)(F)F)cc34)CC2)ccc2c1cc(C#N)n2CCN1CCN(S(C)(=O)=O)C(C)C1 (stereo not drawn) [Compound 43]
6.00 to 7.70 | Cc1c(CN2CCC(Nc3ncnc4sc(CC(F)(F)F)cc34)CC2)ccc2c1cc(C#N)n2CCN1CC(C)N(S(C)(=O)=O)CC1C (stereo not drawn) [Compound 44]
6.00 to 7.70 | Cc1c(CN2CCC(Nc3ncnc4sc(CC(F)(F)F)cc34)CC2)ccc2c1cc(C#N)n2CCN1CCN(S(C)(=O)=O)CC1C (stereo not drawn) [Compound 45]
6.60 to 7.30 | Cc1c(CN2CCC(Nc3ncnc4sc(CC(F)(F)F)cc34)CC2)ccc2c1cc(C#N)n2CCN1C[C@@H](C)N(S(C)(=O)=O)[C@@H](C)C1 [Compound 46]
< 6.00 | Cc1c(CN2CCC(Nc3ncnc4sc(CC(F)(F)F)cc34)CC2)ccc2c1cc(C#N)n2CCN1C(C)CN(S(C)(=O)=O)CC1C (stereo not drawn) [Compound 47]
6.60 to 7.30 | Cc1c(CN2CCC(Nc3ncnc4sc(CC(F)(F)F)cc34)CC2)ccc2c1cc(C#N)n2CCN1C[C@@H](C)N(S(C)(=O)=O)[C@H](C)C1 [Compound 48]
6.60 to 7.30 | Cc1c(CN2CCC(Nc3ncnc4sc(CC(F)(F)F)cc34)CC2)ccc2c1cc(C#N)n2CCN1C[C@H](C)N(S(C)(=O)=O)[C@@H](C)C1 [Compound 49]
6.00 to 7.70 | Cc1c(CN2CCC(Nc3ncnc4sc(CC(F)(F)F)cc34)CC2)ccc2c1cc(C#N)n2CCN1CCC2(CC1)CCN(S(C)(=O)=O)C2 [Compound 52]
6.00 to 7.70 | Cc1c(CN2CCC(Nc3ncnc4sc(CC(F)(F)F)cc34)CC2)ccc2c1cc(C#N)n2CCN1CCC2(CCN(S(C)(=O)=O)C2)C1 (stereo not drawn) [Compound 53]
6.60 to 7.30 | Cc1c(CN2CCC(Nc3ncnc4sc(CC(F)(F)F)cc34)CC2)ccc2c1cc(C#N)n2CCN1CCC2(CC1)CN(S(C)(=O)=O)C2 [Compound 54]
6.00 to 7.70 | Cc1c(CN2CCC(Nc3ncnc4sc(CC(F)(F)F)cc34)CC2)ccc2c1cc(C#N)n2CCN1CC2CN(S(C)(=O)=O)CC2C1 (stereo not drawn) [Compound 55]
6.00 to 7.70 | Cc1c(CN2CCC(Nc3ncnc4sc(CC(F)(F)F)cc34)CC2)ccc2c1cc(C#N)n2CCN1CC2(CCN(S(C)(=O)=O)CC2)C1 [Compound 56]
6.00 to 7.70 | Cc1c(CN2CCC(Nc3ncnc4sc(CC(F)(F)F)cc34)CC2)ccc2c1cc(C#N)n2CCN1CC2(C1)CN(S(C)(=O)=O)C2 [Compound 57]
6.00 to 7.70 | Cc1c(CN2CCC(Nc3ncnc4sc(CC(F)(F)F)cc34)CC2)ccc2c1cc(C#N)n2CCN1CC2(CCN(S(C)(=O)=O)C2)C1 [Compound 58]
6.00 to 7.70 | Cc1c(CN2CCC(Nc3ncnc4sc(CC(F)(F)F)cc34)CC2)ccc2c1cc(C#N)n2CCC1CCN(S(C)(=O)=O)C(C)C1 (stereo not drawn) [Compound 59]
< 6.00 | Cc1c(CN2CCC(Nc3ncnc4sc(CC(F)(F)F)cc34)CC2)ccc2c1cc(C#N)n2CCC1(C)CCN(S(C)(=O)=O)CC1 [Compound 60]
6.60 to 7.30 | Cc1c(CN2CCC(Nc3ncnc4sc(CC(F)(F)F)cc34)CC2)ccc2c1cc(C#N)n2CC1(N2CCN(S(C)(=O)=O)CC2)CC1 [Compound 61]
< 6.00 | Cc1c(CN2CCC(Nc3ncnc4sc(CC(F)(F)F)cc34)CC2)ccc2c1cc(C#N)n2CC(CO)N1CCN(S(C)(=O)=O)CC1 (stereo not drawn) [Compound 62]
> 7.30 | CNS(=O)(=O)N1CCN([C@@H](C)Cn2c(C#N)cc3c(C)c(CN4CCC(Nc5ncnc6sc(CC(F)(F)F)cc56)CC4)ccc32)CC1 [Compound 64]
> 7.30 | Cc1c(CN2CCC(Nc3ncnc4sc(CC(F)(F)F)cc34)CC2)ccc2c1cc(C#N)n2C[C@H](C)N1CCN(C=O)CC1 [Compound 65]
6.00 to 7.70 | CNS(=O)(=O)N1CCN([C@H](C)Cn2c(C#N)cc3c(C)c(CN4CCC(Nc5ncnc6sc(CC(F)(F)F)cc56)CC4)ccc32)CC1 [Compound 66]
6.00 to 7.70 | Cc1c(CN2CCC(Nc3ncnc4sc(CC(F)(F)F)cc34)CC2)ccc2c1cc(C#N)n2C[C@@H](C)N1CCN(C=O)CC1 [Compound 67]
